Assays:
Test in all cases: Preemergence field plot evaluation of percent weed control
Format in all cases: in vivo
Conditions in all cases: visual, 60 days after application
Poa annua = system: Poa annua
Method: (§1) In the following examples, synergism is determined by the Colby^1 method, i.e. the expected (or predicted) response of the combination is calculated by taking the product of the observed response for each individual component of the combination when applied alone divided by 100 and subtracting this value from the sum of the observed response for each component when applied alone. Synergism of the combination is then determined by comparing the observed response of the combination to the expected (or predicted) response as calculated from the observed response of each individual component alone.
(§2) The foregoing is illustrated mathematically below, wherein a combination, C, is composed of component A plus component B and Obs. designates the observed response of the combination C. [formula]
(§3) Formulations containing imazamox^1, pendimethalin^2 and an imazamox/pendimethalin combination^3 are diluted with water and applied preemergence at volumes of 200 L/ha to 400 L/ha to field plots to provide the rates shown in Table I. 60 days after application, the plots are visually evaluted for percent weed control. The results are summarized in Table I. If more than one plot is included in an evaluation, the results are averaged.
(§4) ^1 BOLERO® 40 SL, an imazamox aqueous concentrate commercially available from American Cyanamid Company, Parsippany, N.J.
(§5) ^2 STOMP® 400 SC, a pendimethalin suspension concentrate commercially available from American Cyanamid Company, Parsippany, N.J.
(§6) ^3 An emulsifiable concentrate containing imazamox and pendimethalin.

Polygonum persicaria = system: Polygonum persicaria
Method: as §1, §2, §3, §4, §5, §6

Setaria verticilliata = system: Setaria verticilliata
Method: as §1, §2, §3, §4, §5, §6

SMILES	% Weed Control Observed (Poa annua; pendimethalin 1,125 g/ha alone) [%]	% Weed Control Observed (Polygonum persicaria; pendimethalin 1,125 g/ha alone) [%]	% Weed Control Observed (Setaria verticilliata; pendimethalin 1,125 g/ha alone) [%]	% Weed Control Observed (Poa annua; imazamox 75 g/ha alone) [%]	% Weed Control Observed (Polygonum persicaria; imazamox 75 g/ha alone) [%]	% Weed Control Observed (Setaria verticilliata; imazamox 75 g/ha alone) [%]
CCC(CC)Nc1c([N+](=O)[O-])cc(C)c(C)c1[N+](=O)[O-] [Pendimethalin]	63	76	86	–	–	–
COCc1cnc(C2=NC(C)(C(C)C)C(=O)N2)c(C(=O)O)c1 (stereo not drawn) [Imazamox, 2-(4-isopropyl-4-methyl-5-oxo-2-imidazolin-2-yl)-5-(methoxymethyl)nicotinic acid]	–	–	–	68	66	45

Reference: patent US6890887B2, “Synergistic herbicidal methods and compositions comprising dinitroaniline and imidazolinone compounds” (BASF Aktiengesellschaft, priority 1999, dated 2005)
